Data taken from patent publication US20130072517A1 (Avanir Pharmaceuticals, Inc., priority 2002, published 2013).

What was measured:
[1] = Clinical Study #2: plasma pharmacokinetics of dextromethorphan, dextrorphan and quinidine, single and multiple dose; settings: for AUC(0-t) / Cmax / half-life / Tmax: human, in vivo, mean, 30 mg DM HBr/25 mg Q sulfate capsule every 12 hours; for AUC(0-t): AUC (0-12) (plasma); for Cmax: Cmax (plasma); for half-life: T ½ el (plasma); for Tmax: Tmax (plasma)
Experimental: Descriptive statistics for each parameter, including mean, median, standard deviation, coefficient of variation, N, minimum, and maximum were calculated for all of the subjects by Day. In addition, descriptive statistics were presented by the subgroups: extensive metabolizer (EM) and poor metabolizer (PM).
The ANOVA model included the factors group (EM or PM), subject within group, day, and the interaction term day by group. The group effect was tested using the subject within group mean square, and all other main effects were tested using the residual error (error mean square). In addition, tests of the hypotheses Day 1=Day 4, Day 1=Day 8, and Day 4=Day 8 were performed.

[2] = Clinical Study #4: concentrations of DM, DX and Q in plasma on Day 29; type: in vivo, human; settings: blood collection within 8 hours of last dose
Experimental: (§1) Values were obtained for systolic and diastolic blood pressure, heart rate, and respiration rate on the screening visit and all other study visits. All values outside the pre-defined ranges were flagged in the subject data listings. Electrocardiography (twelve lead) was used to obtain ventricular rate (VR), QT, Q-Tc intervals, […] (PR), and QRS duration. A blood sample (10 mL whole blood) was taken from each subject at the Screening Visit for CYP2D6 genotyping to determine which subjects were poor metabolizers of DM and which were extensive metabolizers. Blood samples were taken on Day 29 for the determination of concentrations of DM, DX, and Q in plasma. The relationship between the concentration of drug in plasma and changes in CNS-LS scores was determined, and the effect of the CYP2D6 genotype on this relationship was evaluated.
Q in this combination product inhibits the rapid first-pass metabolism of DM.

[3] = type: in vivo
Excerpt: An adverse event was any unfavorable and unintended sign (including an abnormal laboratory finding, for example), symptom, or disease temporally associated with the use of a medicinal product, whether or not considered related to the medicinal product. Changes associated with normal growth and development not varying in frequency or magnitude from that ordinarily anticipated clinically are not adverse events (for example, onset of menstruation occurring at a physiologically appropriate time). Clinical adverse events were described by diagnosis and not by symptoms when possible (for example, cold or seasonal allergies, instead of “runny nose”).
The severity of adverse events was graded on a 3-point scale and reported in detail as indicated on the Case Report Form: mild—easily tolerated, causing minimal discomfort, and not interfering with normal everyday activities; moderate—sufficiently discomforting to interfere with normal everyday activities; and severe—incapacitating and/or preventing normal everyday activities.
Subjects were instructed to promptly report any adverse event. The serious adverse event was assessed for the following details: seriousness of event, start date, stop date, intensity, frequency, relationship to test drug, action taken regarding test drug, treatment required, and outcome to date. These details were recorded on the Case Report Form. Such preliminary reports were followed by detailed descriptions that included copies of hospital case reports, autopsy reports, and other documents when requested and applicable.
Blood and urine were collected at the screening visit and Day 29 for clinical chemistry, hematology, urinalysis, and pregnancy testing. In the event of an abnormal laboratory test value, the test was repeated within one week, and the subject was followed up until the value returned to the normal range and/or until an adequate explanation of the abnormality was found.
as §1

[4] = Clinical Study #1: adverse events in dextromethorphan phenotyping and quinidine dose determination study; settings: single oral dose 30 mg capsule; headache, mild
Experimental: A phenotyping study directed to dextromethorphan was conducted. The study was an open-label single dose study. Subjects were screened to ensure they met the inclusion and exclusion criteria. Subjects received a single oral dose of dextromethorphan hydrobromide 30 mg capsule taken with 240 mL of tap water. A total of fifty-eight subjects were screened and fifty subjects dosed. The study determined each subject's ability to metabolize dextromethorphan. Subjects who met the inclusion/exclusion criteria remained in house for dosing. Each subject was administered one 30 mg capsule (P.M.) of dextromethorphan. Urine was collected predose through 12 hours postdose and analyzed for dextromethorphan and dextrorphan.
The study was an open-label, randomized, multiple dose study. Subjects identified as extensive metabolizers received an evening dose on Day 1, at 12-hour intervals for the next six days, with a final morning dose on Day 8. All subjects were instructed to dose themselves at home on eight occasions with medication dispensed to them. Subjects maintained a diary during the study to record adverse effects. […]
A total of eight blood samples (40 mL) were drawn during the study (including the dextromethorphan screen) for drug analysis. […] At the end of the interval, the total volume was recorded and two aliquots were frozen at −20° C. until assayed for dextromethorphan and dextrorphan.

**Q.** Which results are given for `COc1ccc2c(c1)[C@]13CCCCC1[C@H](C2)N(C)CC3` (single isomer, unassigned; (+)) [Dextromethorphan, (+)-3-methoxy-N-methylmorphinan]?
**A.** AUC(0-t) ([1]; Day 1, All Subjects): 148 ng·h/mL; AUC(0-t) ([1]; Day 1, EM): 133 ng·h/mL; AUC(0-t) ([1]; Day 1, PM): 198 ng·h/mL; AUC(0-t) ([1]; Day 4, All Subjects): 886 ng·h/mL; AUC(0-t) ([1]; Day 4, EM): 812 ng·h/mL; AUC(0-t) ([1]; Day 4, PM): 1150 ng·h/mL; AUC(0-t) ([1]; Day 8, All Subjects): 1160 ng·h/mL; AUC(0-t) ([1]; Day 8, EM): 1050 ng·h/mL; AUC(0-t) ([1]; Day 8, PM): 1530 ng·h/mL; Cmax ([1]; Day 1, All Subjects): 17.3 ng/mL; Cmax ([1]; Day 1, EM): 15.9 ng/mL; Cmax ([1]; Day 1, PM): 22.3 ng/mL; Cmax ([1]; Day 4, All Subjects): 83.1 ng/mL; Cmax ([1]; Day 4, EM): 76.7 ng/mL; Cmax ([1]; Day 4, PM): 106 ng/mL; Cmax ([1]; Day 8, All Subjects): 105 ng/mL; Cmax ([1]; Day 8, EM): 95.5 ng/mL; Cmax ([1]; Day 8, PM): 136 ng/mL; half-life ([1]; Day 8, All Subjects): 20.3 h; half-life ([1]; Day 8, EM): 13.1 h; half-life ([1]; Day 8, PM): 42 h; Tmax ([1]; Day 1, All Subjects): 7.11 h; Tmax ([1]; Day 1, EM): 6.85 h; Tmax ([1]; Day 1, PM): 8 h; Tmax ([1]; Day 4, All Subjects): 5.55 h; Tmax ([1]; Day 4, EM): 5.42 h; Tmax ([1]; Day 4, PM): 6 h; Tmax ([1]; Day 8, All Subjects): 5.77 h; Tmax ([1]; Day 8, EM): 5.99 h; Tmax ([1]; Day 8, PM): 4.99 h; Fold increase in AUC (0-12) from Day 1 to Day 8 ([1]; poor metabolizers): 6.1 fold; concentration of DM in plasma, Max [2]: 15.81; concentration of DM in plasma, Mean [2]: 5.18; concentration of DM in plasma, Median [2]: 4.55; concentration of DM in plasma, Min [2]: 0.35; Subjects with dizziness ([3]; 28 days, twice daily): 15.2%; Subjects with loose stools ([3]; 28 days, twice daily): Three; Subjects with nausea ([3]; 28 days, twice daily): 6.1%; Subjects with somnolence ([3]; 28 days, twice daily): 3.0%; Subjects who withdrew because of adverse events ([3]; human, in vivo, 29 days): 6.1%; CPK, change Baseline to Day 29 ([3]; relative to the 30DM/30Q group): significant increase in CPK; Adverse effects reported during the phenotyping study [4]: One
